Experimental data taken from patent publication US20240342238A1, “PEPTIDE HAVING OBESITY AND MUSCLE LOSS INHIBITORY ACTIVITIES, AND USE THEREOF” (Korea University Research and Business Foundation, priority 2021, published 2024).

Experiments:
[1] = tested on: S6; assay: S6 phosphorylation in L6 skeletal muscle cells (Western blot); type: cell-based; conditions: 100 nM, 1 hour; for phosphorylation of S6 (in words): FIG. 9
Protocol: (§1) The effect of the peptide of the present invention on muscles was confirmed. After culturing L6 skeletal muscle cells in a 6-well plate, the cells were starved with 0.5% FBS. Afterward, 100 nM of each peptide was treated for 1 hour, and proteins were collected and subjected to Western blot.

[2] = tested on: peroxisome proliferator-activated receptor α (PPARα); assay: PPARα gene expression in muscle tissue of db/db mouse model (RT-PCR); type: in vivo; conditions: muscle tissue of db/db mice, 2.5 mg/kg i.p. daily, 8 weeks
Protocol: (§2) The obesity-improving effect of a peptide was confirmed by inducing body weight gain in an animal model in which diabetes was induced due to the defect in a leptin receptor. Specifically, C57BLKS/J-db/db 5-week-old male mice were purchased from the Central Laboratory Animal Inc., provided with a normal diet for one week, and used after an acclimation period. The breeding environment was maintained at 18 to 24° C. and a humidity of 50 to 60%, and during the acclimation period and the experimental period, free feeding was implemented with free access to normal feed and water.
(§3) The mice that underwent the acclimation period were divided into a control and a peptide-treated group. The control group was administered PBS, and the peptide-treated group was administered Peptide No. 7 or 8 (2.5 mg/kg) intraperitoneally every day for a total of 8 weeks.
(§4) As a result of RT-PCR, it was confirmed that, by the treatment of Peptide No. 7 or 8, the expression of adipocyte protein 2 (AP2) and CCAAT enhancer binding protein α (C/EBPα) genes, which are involved in lipid accumulation, was reduced, and the expression of a peroxisome proliferator-activated receptor α (PPARα) gene, involved in fatty acid oxidation, was increased. […]

[3] = tested on: CCAAT enhancer binding protein α (C/EBPα); assay: C/EBPα gene expression in muscle tissue of db/db mouse model (RT-PCR); type: in vivo; conditions: muscle tissue of db/db mice, 2.5 mg/kg i.p. daily, 8 weeks
Protocol: as §2, §3, §4

[4] = tested on: adipocyte protein 2 (AP2); assay: AP2 gene expression in muscle tissue of db/db mouse model (RT-PCR); type: in vivo; conditions: muscle tissue of db/db mice, 2.5 mg/kg i.p. daily, 8 weeks
Protocol: as §2, §3, §4

[5] = tested on: Muscle RING Finger-1 (Murf-1); assay: Murf-1 gene expression in muscle tissue of db/db mouse model (RT-PCR); type: in vivo; conditions: muscle tissue of db/db mice, 2.5 mg/kg i.p. daily, 8 weeks
Protocol: as §2, §3, §4

[6] = tested on: FoxO1; assay: FoxO1 phosphorylation and total FoxO1 in L6 skeletal muscle cells (Western blot); type: cell-based; conditions: 100 nM, 1 hour
Protocol: as §1

EQAEEER (listed as Homo sapiens) [No. 2]
increase of phosphorylation of the S6 protein [1]: 365%

REAGGAFGKR (listed as Homo sapiens) [No. 3]
phosphorylation of S6 (in words) [1]: increased

EQAEEERYFR (listed as Homo sapiens) [No. 4]
increase of phosphorylation of the S6 protein [1]: 224%

VDRGAGSIREAGGAFGKREQAEEERYFR (listed as Homo sapiens) [No. 8]
change in PPARα gene expression [2]: +12.9%
change in C/EBPα gene expression [3]: −45.5%
change in AP2 gene expression [4]: −54.7%
change in Murf-1 gene expression [5]: −36.0%
increase of phosphorylation of the S6 protein [1]: 414%

YFRAQSREQLAALKKHH (listed as Homo sapiens) [No. 6]
phosphorylation of S6 (in words) [1]: increased

YFR (listed as Homo sapiens) [No. 1]
expression level of total FoxO1 [6]: decreased
phosphorylation of FoxO1 [6]: increased
increase of phosphorylation of the S6 protein [1]: 188%

AGSIREAGGAFGKREQAEEERYFR (listed as Homo sapiens) [No. 7]
change in PPARα gene expression [2]: +94.1%
change in C/EBPα gene expression [3]: −18.6%
change in AP2 gene expression [4]: −52.5%
change in Murf-1 gene expression [5]: −90.1%
phosphorylation of S6 (in words) [1]: increased

AQSREQLAALKK (listed as Homo sapiens) [No. 5]
increase of phosphorylation of the S6 protein [1]: 494%
